From paper PMC12081877 (Nature Communications, 2025)

Legend:
in vitro = conditions: human, Caco-2, Caco-2 permeability Papp A to B
M^pro = conditions: cited from earlier work

Compound | Papp A→B (in vitro) [×10⁻⁶ cm/s] | IC50 (M^pro) [nM]
Cn1cnc(Cn2c(=O)[nH]/c(=N\c3cc4cn(C)nc4cc3Cl)n(Cc3cc(F)c(F)cc3F)c2=O)n1 [Ensitrelvir] | 0.42 | 
C[C@H](NC(=O)[C@@H](c1cccnc1)N(C(=O)C(Cl)Cl)c1ccc(-c2ccccc2)cc1)c1ccccc1 [Jun9-62-2R] |  | 430
CC(C)(C)[C@H](NC(=O)C(F)(F)F)C(=O)N1C[C@H]2[C@@H]([C@H]1C(=O)N[C@H](C#N)C[C@@H]1CCNC1=O)C2(C)C [Nirmatrelvir] | < 0.1 | 
